Measured values: patent US12600732B2, “Bifunctional compounds for degrading BTK via ubiquitin proteosome pathway” (NURIX THERAPEUTICS, INC., priority 2019, dated 2026)

Target: T1, BTK (Mus musculus, UniProt P35991)
T1 construct: from tissue; host or cells: mouse blood B cells / splenocytes (CD-1 or BALB/c)
Experiment: In vivo degradation of BTK in mouse PD experiments with oral dosing
Conditions: oral dose 1 mg/kg, 6 h, splenocytes, HTRF
Procedure: A method of determining the pharmacodynamic profile of BTK degraders was performed by dosing either CD-1 or BALB/c mice with CTM. The CTM was prepared in a suitable formulation and was administered via oral gavage (PO) at a suitable dose level and frequency as informed by prior pharmacokinetic and tolerability studies. Following administration of CTM, BTK levels in blood or splenocytes are measured using flow cytometry or HTRF. For assessment of BTK levels via flow cytometry, either whole blood or splenocytes were first treated with ACK RBC lysis buffer to facilitate lysing of red blood cells. Remaining cells were then stained with fluorophore-conjugated antibodies against CD45, TCR beta and CD45R (B220). Cell pellets were washed with 1×PBS, fixed, and permeabilized for twenty-four hours with Foxp3/Transcription Factor Fixation/Permeabilization Kit. Cells were then stained intracellularly with unconjugated BTK antibody and detected with a fluorophore-conjugated secondary antibody. Stained cells were run on an Attune N×T Acoustic Focusing Flow Cytometer (Thermo-Fisher A29004), and data was analyzed using FlowJo (v10.5.3) and GraphPad Prism (v7.00) software. Lymphocytes were gated for B cells defined as CD45+ TCR beta−B220+ and T cells as CD45+ TCR beta+B220−. The BTK geometric mean fluorescence intensity (MFI) was calculated for B and T cells. Percent BTK degradation for each compound-treated sample was calculated using the equation described below: % Degradation=100*(Treated sample B cell BTK MFI-treated sample T cell BTK MFI)/Vehicle B cell BTK MFI-Vehicle T cell BTK MFI)
This example evaluates in vivo activity of BTK CTMs via a direct mouse PD measurement following oral dosing
Screens were completed at 90 mg/kg for six hours, and then changed to lower doses/longer time points after seeing strong BTK degradation activity with an initial set of compounds. This assay was useful in selecting compounds for in vivo efficacy experiments.

T1 sequence (P35991 whole entry): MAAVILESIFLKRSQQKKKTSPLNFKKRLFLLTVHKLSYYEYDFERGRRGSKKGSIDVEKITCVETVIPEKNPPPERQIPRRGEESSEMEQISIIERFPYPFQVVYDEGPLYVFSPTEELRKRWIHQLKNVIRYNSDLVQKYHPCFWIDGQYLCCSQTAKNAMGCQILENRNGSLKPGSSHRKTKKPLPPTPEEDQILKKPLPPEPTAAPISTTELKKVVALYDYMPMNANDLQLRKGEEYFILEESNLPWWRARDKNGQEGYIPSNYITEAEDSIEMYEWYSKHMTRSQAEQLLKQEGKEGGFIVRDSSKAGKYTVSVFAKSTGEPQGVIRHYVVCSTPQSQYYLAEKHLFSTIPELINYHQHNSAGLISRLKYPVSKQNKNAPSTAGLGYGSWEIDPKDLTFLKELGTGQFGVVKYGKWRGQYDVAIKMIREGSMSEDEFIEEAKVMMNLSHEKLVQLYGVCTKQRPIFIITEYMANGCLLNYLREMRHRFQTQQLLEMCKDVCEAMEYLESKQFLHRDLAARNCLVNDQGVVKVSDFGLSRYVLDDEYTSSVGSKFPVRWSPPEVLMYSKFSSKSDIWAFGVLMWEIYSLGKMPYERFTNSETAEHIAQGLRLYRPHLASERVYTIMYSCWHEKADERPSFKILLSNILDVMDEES

Structure (SMILES)	% BTK Remaining
CN1CCN([C@@H]2CCCN(c3cnc(C(N)=O)c(Nc4ccc(C5CCN(C[C@@H]6CCCN(c7ccc8c(c7)C(=O)N(C7CCC(=O)NC7=O)C8=O)C6)CC5)cc4)n3)C2)C1=O (stereo partly drawn) [Compound 32, 3-((4-(1-(((3S)-1-(2-(2,6-dioxopiperidin-3-yl)-1,3-dioxoisoindolin-5-yl)piperidin-3-yl)methyl)piperidin-4-yl)phenyl)amino)-5-((R)-3-(3-methyl-2-oxoimidazolidin-1-yl)piperidin-1-yl)pyrazine-2-carboxamide]	93%
CN1CCN([C@@H]2CCCN(c3cnc(C(N)=O)c(Nc4ccc(C5CN(C[C@H]6CCN(c7ccc8c(c7)C(=O)N(C7CCC(=O)NC7=O)C8=O)C6)C5)cc4)n3)C2)C1=O (stereo partly shown) [Compound 35]	74%
CN1CCN([C@@H]2CCCN(c3cnc(C(N)=O)c(Nc4ccc(C5CCN(C[C@@H]6[C@H]7CN(c8ccc9c(c8)C(=O)N(C8CCC(=O)NC8=O)C9=O)C[C@@H]67)CC5)cc4)n3)C2)C1=O (stereo partly shown) [Compound 39]	79%
CN1CCN([C@@H]2CCCN(c3cnc(C(N)=O)c(Nc4ccc(N5CCN(CCC6CCN(c7ccc8c(c7)C(=O)N(C7CCC(=O)NC7=O)C8=O)CC6)CC5)cc4)n3)C2)C1=O (stereo partly shown) [Compound 40]	82%
CN1CCN([C@@H]2CCCN(c3cnc(C(N)=O)c(Nc4ccc(N5CC6CN(Cc7ccc8c(c7)C(=O)N(C7CCC(=O)NC7=O)C8=O)CC6C5)cc4)n3)C2)C1=O (stereo partly shown) [Compound 76]	100%
CN1CCN([C@H]2CCCN(c3cnc(C(N)=O)c(Nc4ccc(N5CC6CN(c7ccc8c(c7)C(=O)N(C7CCC(=O)NC7=O)C8=O)CC6C5)cc4)n3)C2)C1=O (stereo partly shown) [Compound 79]	102%
CN1CCN([C@@H]2CCCN(c3cnc(C(N)=O)c(Nc4ccc(N5CCC6CCN(c7cccc8c7C(=O)N(C7CCC(=O)NC7=O)C8=O)CC6C5)cc4)n3)C2)C1=O (stereo partly shown) [Compound 105]	85%
CN1CCN([C@H]2CCCN(c3cnc(C(N)=O)c(Nc4ccc(N5CCC6(CCCN(Cc7ccc8c(c7)C(=O)N(C7CCC(=O)NC7=O)C8=O)C6)CC5)cc4)n3)C2)C1=O (stereo partly shown) [Compound 108]	116%
CN1CCN([C@@H]2CCCN(c3cnc(C(N)=O)c(Nc4ccc(N5CCN(C[C@H]6CCN(c7ccc8c(c7)C(=O)N(C7CCC(=O)NC7=O)C8=O)C6)CC5)nc4)n3)C2)C1=O (stereo partly shown) [Compound 113]	70%

Same assay, conditions: oral dose 30 mg/kg, 24 h, blood, analysis method not given

Structure (SMILES)	% BTK Remaining
CN1CCN([C@@H]2CCCN(c3cnc(C(N)=O)c(Nc4ccc(N5CCN(C[C@H]6CCN(c7ccc8c(c7)C(=O)N(C7CCC(=O)NC7=O)C8=O)C6)CC5)nc4)n3)C2)C1=O (stereo partly shown) [Compound 113]	59%

Same assay, conditions: oral dose 30 mg/kg, 24 h, blood, flow cytometry

Structure (SMILES)	% BTK Remaining
CN1CCN([C@@H]2CCCN(c3cnc(C(N)=O)c(Nc4ccc(C5CCN(CC6CN(c7ccc8c(=O)n(C9CCC(=O)NC9=O)ccc8c7)C6)CC5)cc4)n3)C2)C1=O (stereo partly shown) [Compound 116]	39%
CN1CCN([C@@H]2CCCN(c3cnc(C(N)=O)c(Nc4ccc(C5CCN(C[C@H]6CCN(c7ccc8c(c7)CN(C7CCC(=O)NC7=O)C8=O)C6)CC5)cc4)n3)C2)C1=O (stereo partly shown) [Compound 117]	49%
CN1CCN([C@H]2CCCN(c3cnc(C(N)=O)c(Nc4ccc(C5CCN(C[C@@H]6CCN(c7ccc(-c8nn(C9CCC(=O)NC9=O)c(=O)n8C)cc7)C6)CC5)cc4)n3)C2)C1=O (stereo partly shown) [Compound 142]	43%
Cn1c(-c2ccc(N3CCC(CN4CCC(c5ccc(Nc6nc(N7CCC[C@H](N8CCCC8=O)C7)cnc6C(N)=O)cc5)CC4)CC3)cc2)nn(C2CCC(=O)NC2=O)c1=O (stereo partly shown) [Compound 143]	37%
NC(=O)c1ncc(N2CCC[C@H](N3CCCC3=O)C2)nc1Nc1ccc(C2CCN(CC3CCN(c4ccc5c(=O)n(C6CCC(=O)NC6=O)ccc5c4)CC3)CC2)cc1 (stereo partly shown) [Compound 144]	29%
Cn1cc(Nc2nc(N3CCC[C@@H](N4CCC5(CN(CC6CCN(c7ccc8c(=O)n(C9CCC(=O)NC9=O)ccc8c7)CC6)C5)C4=O)C3)cnc2C(N)=O)cn1 (stereo partly shown) [Compound 145]	100%
NC(=O)c1ncc(N2CCCC(N3CCCC3=O)C2)nc1Nc1ccc(C2CCN(C[C@@H]3CCN(c4ccc5c(c4)C(=O)N(C4CCC(=O)NC4=O)C5=O)C3)CC2)cc1 (stereo partly shown) [Compound 146]	37%
NC(=O)c1ncc(N2CCC[C@@H](N3CCOC3=O)C2)nc1Nc1ccc(C2CCN(CC3CCN(c4ccc5c(=O)n(C6CCC(=O)NC6=O)ccc5c4)CC3)CC2)cc1 (stereo partly shown) [Compound 153]	33%

Same assay, conditions: oral dose 30 mg/kg, 24 h, splenocytes, HTRF

Structure (SMILES)	% BTK Remaining
CN1CCN([C@@H]2CCCN(c3cnc(C(N)=O)c(Nc4ccc(N5CCN(C[C@H]6CCN(c7ccc8c(c7)C(=O)N(C7CCC(=O)NC7=O)C8=O)C6)CC5)nc4)n3)C2)C1=O (stereo partly shown) [Compound 113]	52%
CN1CCN([C@@H]2CCCN(c3cnc(C(N)=O)c(Nc4ccc(C5CN(CC6CCN(c7cnn(C8CCC(=O)NC8=O)c(=O)c7)CC6)C5)cc4)n3)C2)C1=O (stereo partly shown) [Compound 118]	85%
CN1CCN([C@@H]2CCCN(c3cnc(C(N)=O)c(Nc4ccc(C5CN(CC6CCN(c7ccc(-c8nn(C9CCC(=O)NC9=O)c(=O)n8C)cc7)CC6)C5)cc4)n3)C2)C1=O (stereo partly shown) [Compound 119]	77%
CN1CCN([C@@H]2CCCN(c3cnc(C(N)=O)c(Nc4ccc(C5CCN(CC6CCN(c7cnn(C8CCC(=O)NC8=O)c(=O)c7)CC6)CC5)cc4)n3)C2)C1=O (stereo partly shown) [Compound 120]	59%
NC(=O)c1ncc(N2CCCCC2)nc1Nc1ccc(C2CCN(CC3CCN(c4ccc(OC5CCC(=O)NC5=O)cn4)CC3)CC2)cc1 (stereo not shown) [Compound 164]	29%
CN1CCN([C@@H]2CCCN(c3cnc(C(N)=O)c(Nc4ccc(C5CCN(CC6CCN(c7ccc(OC8CCC(=O)NC8=O)cn7)CC6)CC5)cc4)n3)C2)C1=O (stereo partly shown) [Compound 165]	29%
NC(=O)c1ncc(N2CCC[C@@H](N3CCCC3=O)C2)nc1Nc1ccc(N2CC(C3CCN(c4ccc5c(c4)C(=O)N(C4CCC(=O)NC4=O)C5=O)CC3)C2)nc1 (stereo partly shown) [Compound 168]	84%
NC(=O)c1ncc(N2CCC(F)(F)C(CO)C2)nc1Nc1ccc(C2CCN(C[C@H]3CCN(c4ccc5c(c4)C(=O)N(C4CCC(=O)NC4=O)C5=O)C3)CC2)cc1 (stereo partly shown) [Compound 175]	62%

Same assay, conditions: oral dose 90 mg/kg, 6 h, splenocytes, HTRF

Structure (SMILES)	% BTK Remaining
CN1CCN([C@@H]2CCCN(c3cnc(C(N)=O)c(Nc4ccc(C5CCN(CCC6CCN(c7ccc8c(c7)C(=O)N(C7CCC(=O)NC7=O)C8=O)CC6)CC5)cc4)n3)C2)C1=O (stereo partly shown) [Compound 41]	15%
CN1CCN([C@@H]2CCCN(c3cnc(C(N)=O)c(Nc4ccc(N5CCN(CCC6CN(c7ccc8c(c7)C(=O)N(C7CCC(=O)NC7=O)C8=O)C6)CC5)cc4)n3)C2)C1=O (stereo partly shown) [Compound 43]	4%
CN1CCN([C@@H]2CCCN(c3cnc(C(N)=O)c(Nc4ccc(C5CCN(CCC6CN(c7ccc8c(c7)C(=O)N(C7CCC(=O)NC7=O)C8=O)C6)CC5)cc4)n3)C2)C1=O (stereo partly shown) [Compound 45]	8%
CN1CCN([C@@H]2CCCN(c3cnc(C(N)=O)c(Nc4ccc(N5CCN(C[C@@H]6CCCN(c7ccc8c(c7)C(=O)N(C7CCC(=O)NC7=O)C8=O)C6)CC5)cc4)n3)C2)C1=O (stereo partly shown) [Compound 46]	14%
CN1CCN([C@@H]2CCCN(c3cnc(C(N)=O)c(Nc4ccc(N5CCN(C[C@H]6CCCN(c7ccc8c(c7)C(=O)N(C7CCC(=O)NC7=O)C8=O)C6)CC5)cc4)n3)C2)C1=O (stereo partly shown) [Compound 48]	7%
CN1CCN([C@@H]2CCCN(c3cnc(C(N)=O)c(Nc4ccc(C5CCN(C[C@H]6CCCN(c7ccc8c(c7)C(=O)N(C7CCC(=O)NC7=O)C8=O)C6)CC5)cc4)n3)C2)C1=O (stereo partly shown) [Compound 50]	9%
CN1CCN([C@@H]2CCCN(c3cnc(C(N)=O)c(Nc4ccc(C5CCN(C[C@@H]6CCN(c7ccc8c(c7)C(=O)N(C7CCC(=O)NC7=O)C8=O)C6)CC5)cc4)n3)C2)C1=O (stereo partly shown) [Compound 52]	2%
CN1CCN([C@@H]2CCCN(c3cnc(C(N)=O)c(Nc4ccc(C5(C)CCN(c6ccc7c(c6)C(=O)N(C6CCC(=O)NC6=O)C7=O)CC5)cc4)n3)C2)C1=O (stereo partly shown) [Compound 58]	89%
